From US8865208B2, “Vesicle useful for external preparation for skin, and external preparation for skin comprising the vesicle” (Pola Chemical Industries Inc., priority 2007, dated 2014)

System: skin
Experiment: Test Example 1: transepidermal water loss (TEWL) of skin pretreated with sodium lauryl sulfate, Tewameter
Assay type: in vivo
Details: conclusion drawn from Table 3
Experimental: Vesicle dispersion liquid 1, Vesicle dispersion liquid 2, Comparative Example 4, Comparative Example 5, and Comparative Example 6 were each used as a sample. The skin was previously applied and blocked with 1% sodium lauryl sulfate aqueous solution for 24 hours to enhance transepidermal water loss (TEWL), and was applied and blocked with the sample for 6 hours, and 30 minutes after removing a bandage, TEWL was determined using Tewameter (manufactured by Integral Corporation). It should be noted that water was applied as a control. […] This is inferably because the dermis-reaching property of Palmaria extract 1, which is an active ingredient, has been enhanced owing to the vesicle.

CCCCCCCCCCCC(=O)N[C@@H](CCC(=O)NCCCC[C@H](NC(=O)CC[C@H](NC(=O)CCCCCCCCCCC)C(=O)O)C(=O)O)C(=O)O [Pellicer L-30, α,ε-bis (γ-N-lauroylglutamyl)lysine]
TEWL-suppressing effect (in words): had a function of suppressing TEWL
